Reference: patent publication US20200171056A1, “SULFONYLUREA COMPOUNDS IN THE TREATMENT OF DISEASE ASSOCIATED WITH UV-INDUCED DAMAGE” (CeMM - Forschungszentrum für Molekulare Medizin GmbH, priority 2017, published 2020)

Columns and labels:
Type in all cases: cell-based, human
WT HAP1 cells = assay: Survival after other DNA damaging agents (MMC, HU, MMS); conditions: WT HAP1, 0.5 mM for 6 hours, 3 days
Protocol: A. WT and ΔXPA cells were either treated with DMSO or 0.5 mM acetohexamide for 6 hours. Cell cycle profiles were determined using propidium iodide (P1) staining followed by FACS analysis. B-D. Survival of WT HAP1 cells treated with either DMSO or 0.5 mM acetohexamide for 6 hours, followed by exposure to the indicated DNA damaging agents (MMC: mitomycin C; HU: hydroxyl urea; MMS: methyl methanesulfonate). Survival was assessed after 3 days using CellTitre-Glo. E. Cell viability of WT cells treated either with 0.5 mM acetohexamide or 30 μM N-acetylcysteine (NAC) for 6 hours, followed by 30 J/M^2 UV exposure.
Dose Responses and UV Treatment Dose-response curves for the DNA damage agents including mitomycin C (MMC), methyl methanesulfonate (MMS), hydroxyurea (HU), neocarzinostatin (NCS) and illudin S were performed in 96-well plates by seeding 1,000 cells/well in triplicates. The next day, compounds at different concentrations were added and 3 days later, cell viability was assessed using Cell Titer-Glo (Promega)

ΔXPA cells = assay: Short-term survival after UV irradiation (CellTiter-Glo); conditions: 0.5 mM acetohexamide for 6 hours, then UV; survival after 3 days (FIG. 1D)
From the text: A. Schematic representation of the experimental setup used to perform the high-throughput drug screen, where drugs were used at five-times maximal plasma concentration (CLOUD; CeMM library of unique drugs). B. Bubble plot displaying the drugs used plotted against cell viability. Light grey bubbles indicate wildtype (WT) cells, dark grey bubbles indicate XPA-deficient cells (ΔXPA). […] C. Chemical structure of acetohexamide. D. Dose-response curve of WT and ΔXPA cells treated with or without 0.5 mM acetohexamide for 6 hours, followed by UV irradiation. Survival was assessed after 3 days, using CellTiter-Glo. […] Error bars indicate SEM (n=3). E. Colony formation using the same conditions indicated in (D), where cells were kept in culture for 10 days following UV irradiation, following which they were fixed and stained.
A-C. Cell viability of ΔXPA cells treated with different concentrations of acetohexamide (aceto), gliclazide (GLC) and glimepiride (GLM) for 6 hours, followed by 10 J/M^2 of UV irradiation. D. Survival of WT and ΔXPA cells treated with or without 50 μM glibenclamide for 6 hours, followed by UV exposure. Survival was assessed after 3 days using CellTitre-Glo. E. Cell viability of ΔXPA cells treated with 10 μM of different derivatives of acetohexamide for 6 hours, followed by UV irradiation with 5 J/M^2.
For UV irradiation, cells were washed with PBS, trypsinized, counted and distributed in equal number then irradiated with different doses of UV as indicated. Finally, 1,000 cells were re-distributed into 96 well plates. After 72 hours, survival was measured using Cell Titer-Glo (Promega). Cells were irradiated with UVC using the UVP CX-2000 device (254 nm, Fisher Scientific).

ΔXPA-MUTYH HAP1 cells = assay: Colony formation of double knockout after UV irradiation; conditions: 0.5 mM for 6 hours, 15 J/M^2 UV, 10 days (FIG. 4C)
Protocol: A. WT HAP1 cells were treated with or without 0.5 mM acetohexamide for 6 hours, then released into compound-free media for the indicated time points and immunoblotted with an anti-MUTYH antibody. ACTIN was used as a loading control. B. WT HAP1 cells were either treated with 0.5 mM acetohexamide alone or with 10 μM of the proteasome inhibitor MG132 for 6 hours and analyzed by immunoblotting using an anti-MUTYH antibody. C. Left panel: colony formation of the WT, ΔXPA or ΔXPA-MUTYH HAP1 cells treated with or without 0.5 mM acetohexamide for 6 hours, followed by 15 J/M^2 UV irradiation and then kept in culture for 10 days. Right panel: Macroscopic colonies were stained with crystal violet and quantified. D. WT, ΔXPA or ΔXPA-MUTYH HAP1 cells were treated with 15 J/M^2 UV or left untreated, then kept in culture for the indicated recovery times and analyzed by dot blot for the presence of CPDs within genomic DNA. […] F. Survival of WT and ΔMULE HAP1 cells exposed to UV irradiation at different doses and assessed after 3 days, using CellTitre-Glo.
Cells were treated with UV at different doses with or without drug pre-treatment and then seeded into 6-well plates, at a density of 1,000 cells/well, in duplicates for 2 weeks until visible colonies were formed. […] Next, the staining solution was removed and the wells were washed, imaged and quantified using CellProfiler.

WT and ΔXPA cells = assay: Survival after illudin S treatment; conditions: 0.5 mM acetohexamide for 6 hours, then illudin S (FIG. 2A, 7B)
Protocol: A. Dose-response curve of WT and ΔXPA cells treated with or without 0.5 mM acetohexamide for 6 hours, followed by illudin S treatment. Survival was assessed after 3 days using CellTiter-Glo. B. Colony formation of WT fibroblasts (BJ) and XPA-patient derived fibroblasts (XPA^Δ/Δ) treated with or without 0.5 mM acetohexamide for 6 hours, followed by UV irradiation (as indicated) and then kept in culture for 10 days. C. WT BJ and XPA^Δ/Δ fibroblastoid cells were treated with 0.5 mM acetohexamide for 6 hours, irradiated with 15 J/M^2 and then fixed and immunostained with an anti-cyclobutane pyrimidine dimer (CPD) antibody at the indicated times. Nuclear DNA was counterstained with DAPI. Scale bar, 10 μm. D. Scatter plot displaying the quantification of CPD intensities per nucleus of WT and XPA^Δ/Δ cells in the presence or absence of 0.5 mM acetohexamide, of more than 100 cells. Red lines within each column represent median intensities. A.u.=arbitrary unit.
A. Dose-response curve of WT and ΔXPA cells treated with or without 0.5 mM acetohexamide for the indicated times, followed by UV irradiation. Survival was assessed after 3 days, using CellTiter-Glo. […] WT and ΔXPA cells treated with or without 0.5 mM acetohexamide for the indicated times, followed by 15 J/M^2 irradiation and analyzed by dot blot for the presence of CPDs in genomic DNA. […] D. Quantification of the intensities of C. […]

SMILES: CC(=O)c1ccc(S(=O)(=O)NC(=O)NC2CCCCC2)cc1 [acetohexamide]
- cellular survival following exposure to HU (WT HAP1 cells; then hydroxyurea): did not increase cellular survival
- cellular survival following exposure to MMS (WT HAP1 cells; then methyl methanesulfonate): did not increase cellular survival
- cellular survival following exposure to MMC (WT HAP1 cells; then mitomycin C): did not increase cellular survival
- UV sensitivity of ΔXPA cells, short-term dose response assay (ΔXPA cells): alleviated the UV sensitivity of ΔXPA cells almost to the level of wildtype cells
- survival of double knockout ΔXPA-MUTYH upon UV treatment (ΔXPA-MUTYH HAP1 cells): did not lead to a further increase in survival upon UV treatment
- cellular survival following illudin S treatment (WT and ΔXPA cells): could increase cellular survival following illudin S treatment
